Broadly, the IC50 is the concentration that gives 50% inhibition. A word on the inhibition: it is the change of the read-out against control, counted positive when it falls.

System in the first data set: not listed separately
Description: Cytotoxicity against HIV1 pseudovirus infected in human B cells. The data set is classed as cell-based. Particulars: b cell.
As to `CCCSCCCNC(=O)Nc1cc(OC)c(Cl)cc1OC`, the Activity result is on record as “Toxic”.
Still for that read-out and setting: under `CCCN(CCCNC(=S)Nc1cc(OC)c(Cl)cc1OC)C(=O)OC(C)(C)C` stands “Toxic”.

For a further data set, the system named is Human immunodeficiency virus 1. The experiment in a line: Antiviral activity against HIV1 pseudovirus infected in human B cell assessed as inhibition of infection. Particulars: Human immunodeficiency virus 1, B. The data set is classed as functional, organism-based.
Consider `CCCOC(=O)CCCNC(=S)Nc1cc(OC)c(Cl)cc1OC`, for which the IC50 came to 1.1 nM.
Regarding `CCCOCCCNC(=S)Nc1cc(OC)c(Cl)cc1OC`, the IC50 was determined as 168 nM.

Another data set has as its system Human immunodeficiency virus 1. The experiment in a line: Antiviral activity against HIV1 pseudovirus infected in human B cell assessed as inhibition of infection at 5 uM after 48 to 72 hrs by flow cytometry. It is filed as functional. Particulars: Human immunodeficiency virus 1, B. For orientation: A flow cytometer gives signals particle by particle.
For `COc1cc(N=C(S)NCCCO)c(OC)cc1Cl`, the inhibition at 5 µM is 92%.
The same measure, in the same setting: then `CCCOCCCNC(=S)Nc1cc(OCC)c(Cl)cc1OCC`, with 58%; and `CCCOCCCNC(=S)Nc1cc(OCCC)c(Cl)cc1OCCC`, with 107%; and `CCCOCCCNC(=S)Nc1cc(OC)c([N+](=O)[O-])cc1OC`, with 107%.
In the case of `CCCOCCCNC(=O)Nc1cc(OC)c(Cl)cc1OC`, the inhibition at 5 µM amounted to 47%.
The same measure, in the same setting: then `CCCCCCCNC(=O)Nc1cc(OC)c(Cl)cc1OC`, with 89%; and `CCCOCCNC(=S)Nc1cc(OC)c(Cl)cc1OC`, with 46%; and `COCCCNC(=S)Nc1cc(OC)c(Cl)cc1OC`, with 105%.
Still for that read-out and setting: then `CCOCCCNC(=S)Nc1cc(OC)c(Cl)cc1OC`, with 66%; and `CCCCCCNC(=S)Nc1cc(OC)c(Cl)cc1OC`, with 87%; and `CCCCCCCNC(=S)Nc1cc(OC)c(Cl)cc1OC`, with 87%.
Turning to `CCCCCCNC(=S)Nc1cc(OCC)c(Cl)cc1OCC`, the inhibition at 5 µM stood at 107%.
Still for that read-out and setting: under `CCCCCCCNC(=S)Nc1cc(OCC)c(Cl)cc1OCC` stands 69%.
Take `CCCSCCCNC(=S)Nc1cc(OC)c(Cl)cc1OC`: the inhibition at 5 µM stood at 24%.
Still for that read-out and setting: under `CCC[S+]([O-])CCCNC(=S)Nc1cc(OC)c(Cl)cc1OC` (stereo not drawn) stands 91%.
With `CCCNCCCNC(=S)Nc1cc(OC)c(Cl)cc1OC`, the inhibition at 5 µM amounted to 83%.
Regarding `CCCC(=O)OCCCN/C(=N/c1cc(OC)c(Cl)cc1OC)SC(=O)CCC`, the inhibition at 5 µM came out at 87%.
Still for that read-out and setting: under `CCCC(=O)OCCCNC(=S)Nc1cc(OC)c(Cl)cc1OC` stands 65%.
As for `CCC(=O)OCCCNC(=S)Nc1cc(OC)c(Cl)cc1OC`, the inhibition at 5 µM worked out at 86%.
The same measure, in the same setting: under `COc1cc(NC(=S)NCCCOC(C)=O)c(OC)cc1Cl` stands 123%; under `CCCCOC(=O)CCNC(=S)Nc1cc(OC)c(Cl)cc1OC`, 43%; under `CCCOC(=O)CCNC(=S)Nc1cc(OC)c(Cl)cc1OC`, 66%.
As to `COC(=O)CCNC(=S)Nc1cc(OC)c(Cl)cc1OC`, the inhibition at 5 µM amounted to 56%.
On the same count and under the same terms, then `CCOC(=O)CCNC(=S)Nc1cc(OC)c(Cl)cc1OC`, with 66%.
Take `COc1cc(NC(=S)NCCC(=O)O)c(OC)cc1Cl`: the inhibition at 5 µM was determined as 91%.
Still for that read-out and setting: under `COC(=O)CCCNC(=S)Nc1cc(OC)c(Cl)cc1OC` stands 73%; under `CCOC(=O)CCCNC(=S)Nc1cc(OC)c(Cl)cc1OC`, 24%; under `CCCOC(=O)CCCNC(=S)Nc1cc(OC)c(Cl)cc1OC`, 17%.
Still for that read-out and setting: then `CCCCOC(=O)CCCNC(=S)Nc1cc(OC)c(Cl)cc1OC`, with 29%.
Still for that read-out and setting: under `CCCNC(=O)CCCNC(=S)Nc1cc(OC)c(Cl)cc1OC` stands 69%; under `CCCSC(=O)CCCNC(=S)Nc1cc(OC)c(Cl)cc1OC`, 79%; under `COC(=O)CCCNC(=O)Nc1cc(OC)c(Cl)cc1OC`, 87%.
As for `CCOC(=O)CCCNC(=O)Nc1cc(OC)c(Cl)cc1OC`, the inhibition at 5 µM worked out at 65%.
On the same count and under the same terms, under `COc1cc(NC(=S)N2CCCC2=O)c(OC)cc1Cl` stands 104%.

Source of the values: ChEMBL document CHEMBL1667744, “Structure--activity relationship studies of 1-(4-chloro-2,5-dimethoxyphenyl)-3-(3-propoxypropyl)thiourea, a non-nucleoside reverse transcriptase inhibitor of human immunodeficiency virus type-1” (Eur J Med Chem, 2011).
